Marks after values point to notes of the source that are not given here.
Key:
PDECX 1T0950 = assay: Anti-tumor efficacy in PDECX model 1T0950; format: in vivo, mice; details: Theliatinib 15 mg/kg/day oral; for % regression: end of study
Excerpt: (§1) Seven- to nine week old NOD-SCID (NOD.CB17-Prkde/JSlac) immunodeficient or BALB/cASlac-nu/nu male or female mice were obtained from Shanghai SLAC Laboratory Animal Co. Ltd or Shanghai LingChang BioTech Co. Ltd. Fresh tumor specimens from newly diagnosed patients were collected during surgery and separated into three parts for the following: (1) To prepare formalin fixed paraffin embedded (FFPE) sections; (2) For snap freezing in liquid nitrogen for DNA extraction and sequencing and (3) For subcutaneous implantation into NOD-SCID mice (P0) and subsequent passages in additional NOD-SCID or nude mice once the tumor size reached 800~1500 mm^3. […] All experiments in animals were performed in accordance with protocols approved by the Hutchison MediPharma Limited Animal Care and Use Committee ([…]).
(§2) When the average tumor volume reached the 250~500 mm^3, mice were randomly divided into different experimental groups. […] Body weight and tumor size of all mice was measured twice or thrice a week. Tumor volumes (TV) were calculated by measuring two perpendicular diameters with calipers (formula: TV = (length × width^2)/2). Tumor growth inhibition (TGI) was calculated using the formula TGI= [1-(Vt -V0)drug treated / (Vt -V0)vehicle control]×100%. Statistical significance was determined by Student's t test and p < 0.05 was considered statistically significant.

PDECX 1T0994 = assay: Anti-tumor efficacy in PDECX model 1T0994; format: in vivo, mice; details: Theliatinib 15 mg/kg/day oral; PDECX 1T0994 (EGFR Q787Q)
Excerpt: as §1, §2

ACK1(h) = ACK1(h) (Homo sapiens, UniProt Q07912); assay: Kinase selectivity panel: ACK1(h); format: biochemical
Chain of ACK1(h) (Q07912 whole entry): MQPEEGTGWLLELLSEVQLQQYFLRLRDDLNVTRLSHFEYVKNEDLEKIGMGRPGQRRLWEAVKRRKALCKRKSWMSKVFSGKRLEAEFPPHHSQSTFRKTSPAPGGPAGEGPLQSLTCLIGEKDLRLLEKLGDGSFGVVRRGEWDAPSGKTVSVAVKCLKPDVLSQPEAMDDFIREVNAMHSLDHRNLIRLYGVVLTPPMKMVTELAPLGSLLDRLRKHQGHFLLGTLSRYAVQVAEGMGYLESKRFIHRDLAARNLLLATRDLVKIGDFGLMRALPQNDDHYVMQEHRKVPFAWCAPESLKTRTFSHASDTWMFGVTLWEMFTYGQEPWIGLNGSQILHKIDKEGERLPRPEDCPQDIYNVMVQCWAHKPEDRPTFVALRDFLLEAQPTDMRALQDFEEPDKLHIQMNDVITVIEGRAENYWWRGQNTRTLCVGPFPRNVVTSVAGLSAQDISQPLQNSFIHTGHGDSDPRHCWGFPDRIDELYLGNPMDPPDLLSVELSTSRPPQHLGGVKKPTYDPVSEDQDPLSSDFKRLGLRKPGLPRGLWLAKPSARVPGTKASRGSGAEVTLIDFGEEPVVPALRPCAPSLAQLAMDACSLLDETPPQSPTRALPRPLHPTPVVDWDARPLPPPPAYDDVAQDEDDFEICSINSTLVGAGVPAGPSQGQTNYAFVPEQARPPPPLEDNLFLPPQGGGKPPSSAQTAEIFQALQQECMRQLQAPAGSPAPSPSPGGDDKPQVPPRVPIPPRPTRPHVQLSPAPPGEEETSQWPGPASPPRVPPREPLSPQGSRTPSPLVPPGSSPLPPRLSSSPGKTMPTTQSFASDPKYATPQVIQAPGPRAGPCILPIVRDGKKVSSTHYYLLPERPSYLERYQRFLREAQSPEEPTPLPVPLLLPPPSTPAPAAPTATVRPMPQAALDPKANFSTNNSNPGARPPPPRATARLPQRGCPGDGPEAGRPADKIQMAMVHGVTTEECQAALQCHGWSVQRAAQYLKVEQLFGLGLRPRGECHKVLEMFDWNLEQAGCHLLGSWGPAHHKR
Protocol: (§3) Supplement oncotarget-08-50832-s003.xlsx, sheet "Sheet1" | column: Inhibition(%) at 3 µM; IC50 (nM)

Arg(h) = Arg(h) (Homo sapiens, UniProt P42684); assay: Kinase selectivity panel: Arg(h); format: biochemical
Protocol: (§4) Supplement oncotarget-08-50832-s003.xlsx, sheet "Sheet1" | column: Inhibition(%) at 3 µM

Axl(h) = Axl(h) (Homo sapiens, UniProt P30530); assay: Kinase selectivity panel: Axl(h); format: biochemical
Protocol: as §4

BRK(h) = BRK(h) (Homo sapiens, UniProt Q13882); assay: Kinase selectivity panel: BRK(h); format: biochemical
Protocol: as §4

CK2(h) = CK2(h) (Homo sapiens, UniProt P68400); assay: Kinase selectivity panel: CK2(h); format: biochemical
Protocol: as §4

CLK2(h) = CLK2(h) (Homo sapiens, UniProt P49760); assay: Kinase selectivity panel: CLK2(h); format: biochemical
Protocol: as §4

cSRC(h) = cSRC(h) (Homo sapiens, UniProt P12931); assay: Kinase selectivity panel: cSRC(h); format: biochemical
Protocol: as §4

EGFR(h) = EGFR(h) (Homo sapiens, UniProt P00533); assay: Kinase selectivity panel: EGFR(h); format: biochemical
Chain of EGFR(h) (P00533 25-1210): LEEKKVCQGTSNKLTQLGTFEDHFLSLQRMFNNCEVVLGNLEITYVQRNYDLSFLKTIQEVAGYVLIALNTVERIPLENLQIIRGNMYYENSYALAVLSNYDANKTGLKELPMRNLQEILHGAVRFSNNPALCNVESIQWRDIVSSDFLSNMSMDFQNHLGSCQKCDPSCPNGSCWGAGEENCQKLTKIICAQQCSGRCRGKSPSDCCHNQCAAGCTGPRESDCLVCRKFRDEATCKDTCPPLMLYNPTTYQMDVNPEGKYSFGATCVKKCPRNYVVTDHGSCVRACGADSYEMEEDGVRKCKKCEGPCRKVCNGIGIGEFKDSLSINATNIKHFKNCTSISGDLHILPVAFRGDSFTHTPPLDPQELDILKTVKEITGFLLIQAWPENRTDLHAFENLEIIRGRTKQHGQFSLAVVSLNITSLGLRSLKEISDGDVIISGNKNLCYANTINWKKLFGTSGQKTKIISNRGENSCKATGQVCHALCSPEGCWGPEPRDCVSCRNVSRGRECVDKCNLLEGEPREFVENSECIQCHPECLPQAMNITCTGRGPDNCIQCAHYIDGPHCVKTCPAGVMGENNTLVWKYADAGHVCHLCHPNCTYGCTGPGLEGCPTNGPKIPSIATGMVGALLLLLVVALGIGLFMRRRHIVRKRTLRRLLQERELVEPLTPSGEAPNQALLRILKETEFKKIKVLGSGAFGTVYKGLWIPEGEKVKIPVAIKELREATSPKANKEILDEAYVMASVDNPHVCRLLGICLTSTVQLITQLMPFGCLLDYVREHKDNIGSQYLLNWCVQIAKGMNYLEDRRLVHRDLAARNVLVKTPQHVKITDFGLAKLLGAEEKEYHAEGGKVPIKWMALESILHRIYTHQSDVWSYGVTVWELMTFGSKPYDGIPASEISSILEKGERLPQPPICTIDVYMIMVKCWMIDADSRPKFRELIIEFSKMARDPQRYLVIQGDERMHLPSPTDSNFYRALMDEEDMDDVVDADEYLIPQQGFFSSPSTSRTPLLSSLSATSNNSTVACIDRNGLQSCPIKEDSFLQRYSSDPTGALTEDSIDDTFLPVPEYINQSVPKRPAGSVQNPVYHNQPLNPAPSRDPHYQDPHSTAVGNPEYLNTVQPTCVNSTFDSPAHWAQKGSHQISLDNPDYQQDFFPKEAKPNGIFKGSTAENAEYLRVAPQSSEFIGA

EGFR(T790M,L858R)(h) = EGFR(T790M,L858R)(h) (Homo sapiens, UniProt P00533, L858R/T790M); assay: Kinase selectivity panel: EGFR(T790M,L858R)(h); format: biochemical
ErbB4(h) = ErbB4(h) (Homo sapiens, UniProt Q15303); assay: Kinase selectivity panel: ErbB4(h); format: biochemical
Chain of ErbB4(h) (Q15303 26-1308): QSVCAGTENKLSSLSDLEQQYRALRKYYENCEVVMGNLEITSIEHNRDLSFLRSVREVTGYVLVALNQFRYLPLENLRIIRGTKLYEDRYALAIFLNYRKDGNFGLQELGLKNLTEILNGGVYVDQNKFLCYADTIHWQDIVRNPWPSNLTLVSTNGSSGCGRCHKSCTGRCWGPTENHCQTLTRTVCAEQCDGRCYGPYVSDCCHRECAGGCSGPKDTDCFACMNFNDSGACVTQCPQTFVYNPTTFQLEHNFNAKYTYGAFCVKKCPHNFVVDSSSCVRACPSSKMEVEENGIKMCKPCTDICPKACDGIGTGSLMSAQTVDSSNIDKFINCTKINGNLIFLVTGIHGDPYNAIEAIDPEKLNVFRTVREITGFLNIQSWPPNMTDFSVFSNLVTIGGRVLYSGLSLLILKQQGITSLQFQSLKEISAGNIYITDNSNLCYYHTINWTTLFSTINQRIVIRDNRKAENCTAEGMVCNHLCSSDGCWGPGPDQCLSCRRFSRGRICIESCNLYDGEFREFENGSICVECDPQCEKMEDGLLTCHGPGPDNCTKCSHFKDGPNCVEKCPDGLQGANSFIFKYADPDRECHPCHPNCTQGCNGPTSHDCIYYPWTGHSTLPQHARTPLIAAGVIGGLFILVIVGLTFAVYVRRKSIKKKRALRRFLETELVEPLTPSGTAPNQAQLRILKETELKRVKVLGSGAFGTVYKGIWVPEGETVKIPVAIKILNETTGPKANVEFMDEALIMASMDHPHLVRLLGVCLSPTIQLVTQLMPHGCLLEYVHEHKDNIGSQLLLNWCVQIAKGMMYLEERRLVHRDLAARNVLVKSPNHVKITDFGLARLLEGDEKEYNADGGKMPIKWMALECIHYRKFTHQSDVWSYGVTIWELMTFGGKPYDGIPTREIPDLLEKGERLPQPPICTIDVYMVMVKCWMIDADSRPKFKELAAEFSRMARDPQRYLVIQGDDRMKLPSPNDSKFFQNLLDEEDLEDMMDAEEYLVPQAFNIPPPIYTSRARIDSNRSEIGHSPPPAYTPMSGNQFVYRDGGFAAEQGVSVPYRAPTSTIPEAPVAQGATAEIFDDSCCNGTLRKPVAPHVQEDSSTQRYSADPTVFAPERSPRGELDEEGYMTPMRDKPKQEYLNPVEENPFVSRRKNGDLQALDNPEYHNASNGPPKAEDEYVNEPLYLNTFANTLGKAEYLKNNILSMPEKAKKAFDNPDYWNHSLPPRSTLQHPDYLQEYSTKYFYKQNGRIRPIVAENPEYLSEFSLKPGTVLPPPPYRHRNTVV
Protocol: as §3

FAK(h) = FAK(h) (Homo sapiens, UniProt Q05397); assay: Kinase selectivity panel: FAK(h); format: biochemical
Protocol: as §4

Flt1(h) = Flt1(h) (Homo sapiens, UniProt P17948); assay: Kinase selectivity panel: Flt1(h); format: biochemical
Protocol: as §4

Flt4(h) = Flt4(h) (Homo sapiens, UniProt P35916); assay: Kinase selectivity panel: Flt4(h); format: biochemical
Protocol: as §4

Fyn(h) = Fyn(h) (Homo sapiens, UniProt P06241); assay: Kinase selectivity panel: Fyn(h); format: biochemical
Protocol: as §4

KDR(h) = KDR(h) (Homo sapiens, UniProt P35968); assay: Kinase selectivity panel: KDR(h); format: biochemical
Protocol: as §4

MEK1(h) = MEK1(h) (Homo sapiens, UniProt Q02750); assay: Kinase selectivity panel: MEK1(h); format: biochemical
Chain of MEK1(h) (Q02750 whole entry): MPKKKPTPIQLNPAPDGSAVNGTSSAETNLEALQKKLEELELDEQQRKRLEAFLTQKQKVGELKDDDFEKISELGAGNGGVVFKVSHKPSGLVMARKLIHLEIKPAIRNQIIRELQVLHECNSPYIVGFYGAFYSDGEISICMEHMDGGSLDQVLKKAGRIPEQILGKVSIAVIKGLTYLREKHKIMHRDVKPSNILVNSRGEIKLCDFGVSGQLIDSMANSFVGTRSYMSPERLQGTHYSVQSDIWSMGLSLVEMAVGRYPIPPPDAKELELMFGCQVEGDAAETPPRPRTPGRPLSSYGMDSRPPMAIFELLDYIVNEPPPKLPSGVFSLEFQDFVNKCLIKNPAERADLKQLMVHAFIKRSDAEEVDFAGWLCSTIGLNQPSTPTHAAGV
Protocol: as §4

Pim-2(h) = Pim-2(h) (Homo sapiens, UniProt Q9P1W9); assay: Kinase selectivity panel: Pim-2(h); format: biochemical
Protocol: as §4

Pim-3(h) = Pim-3(h) (Homo sapiens, UniProt Q86V86); assay: Kinase selectivity panel: Pim-3(h); format: biochemical
Protocol: as §4

PKCβI(h) = PKCβI(h) (Homo sapiens, UniProt P05771); assay: Kinase selectivity panel: PKCβI(h); format: biochemical
Protocol: as §4

ROCK-II(h) = ROCK-II(h) (Homo sapiens, UniProt O75116); assay: Kinase selectivity panel: ROCK-II(h); format: biochemical
Protocol: as §4

Ros(h) = Ros(h) (Homo sapiens, UniProt P08922); assay: Kinase selectivity panel: Ros(h); format: biochemical
Protocol: as §4

TAK1(h) = TAK1(h) (Homo sapiens, UniProt O43318); assay: Kinase selectivity panel: TAK1(h); format: biochemical
Protocol: as §4

TAO2(h) = TAO2(h) (Homo sapiens, UniProt Q9UL54); assay: Kinase selectivity panel: TAO2(h); format: biochemical
Protocol: as §4

TrkA(h) = TrkA(h) (Homo sapiens, UniProt P04629); assay: Kinase selectivity panel: TrkA(h); format: biochemical
Protocol: as §4

TrkB(h) = TrkB(h) (Homo sapiens, UniProt Q16620); assay: Kinase selectivity panel: TrkB(h); format: biochemical
Protocol: as §4

ZAP-70(h) = ZAP-70(h) (Homo sapiens, UniProt P43403); assay: Kinase selectivity panel: ZAP-70(h); format: biochemical
Chain of ZAP-70(h) (P43403 whole entry): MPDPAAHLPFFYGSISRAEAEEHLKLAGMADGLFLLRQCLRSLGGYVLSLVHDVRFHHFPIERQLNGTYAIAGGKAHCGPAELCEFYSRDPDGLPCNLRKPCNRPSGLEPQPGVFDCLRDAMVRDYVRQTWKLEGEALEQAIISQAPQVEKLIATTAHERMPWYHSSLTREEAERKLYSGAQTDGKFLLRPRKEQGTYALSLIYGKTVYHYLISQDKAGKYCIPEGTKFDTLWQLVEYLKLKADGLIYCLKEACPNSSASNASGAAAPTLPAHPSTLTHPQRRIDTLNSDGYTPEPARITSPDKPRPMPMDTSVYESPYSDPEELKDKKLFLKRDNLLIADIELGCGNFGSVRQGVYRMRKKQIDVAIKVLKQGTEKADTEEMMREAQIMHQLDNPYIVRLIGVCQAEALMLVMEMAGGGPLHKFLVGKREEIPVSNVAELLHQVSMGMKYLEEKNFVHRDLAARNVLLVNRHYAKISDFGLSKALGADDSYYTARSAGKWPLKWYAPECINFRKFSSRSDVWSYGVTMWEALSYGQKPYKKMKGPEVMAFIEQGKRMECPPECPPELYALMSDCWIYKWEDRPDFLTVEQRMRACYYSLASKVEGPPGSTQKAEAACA
Protocol: as §4

SMILES: C#Cc1cccc(Nc2ncnc3cc(OC)c(NC(=O)N4C[C@H]5CCN(C)[C@H]5C4)cc23)c1 [Theliatinib, (3aR,6aR)-N-(4-(3-ethynylphenyl-amino)-7-methoxyquinazolin-6-yl)-1-methyl-hexahydropyrrolo [3,4-b]pyrrole-5(1H)-carboxamide]
- % TGI (PDECX 1T0950): 144.4%
- % regression (PDECX 1T0950): 75.3%
- % regression (PDECX 1T0950; listed as theliatinib): 75%
- % TGI (PDECX 1T0994): 46.3* %
- IC50 (ACK1(h)): 256 nM
- inhibition at 3 µM (ACK1(h); 3 µM): 90%
- inhibition at 3 µM (Arg(h)): 48%
- inhibition at 3 µM (Axl(h)): 10%
- inhibition at 3 µM (BRK(h)): 17%
- inhibition at 3 µM (CK2(h)): -1%
- inhibition at 3 µM (CLK2(h)): 35%
- inhibition at 3 µM (cSRC(h)): 35%
- IC50 (EGFR(h); EGFR(h)): 3 nM
- inhibition at 3 µM (EGFR(h); EGFR(h), 3 µM): 107%
- selectivity for EGFR compared to 72 other kinases (EGFR(h); kinase panel): 50 fold
- IC50 (EGFR(T790M,L858R)(h)): 22 nM
- IC50 (ErbB4(h)): 705 nM
- inhibition at 3 µM (ErbB4(h); 3 µM): 85%
- inhibition at 3 µM (FAK(h)): 3%
- inhibition at 3 µM (Flt1(h)): 45%
- inhibition at 3 µM (Flt4(h)): 36%
- inhibition at 3 µM (Fyn(h)): 70%
- inhibition at 3 µM (KDR(h)): 17%
- inhibition at 3 µM (MEK1(h)): -6%
- inhibition at 3 µM (Pim-2(h)): -7%
- inhibition at 3 µM (Pim-3(h)): 14%
- inhibition at 3 µM (PKCβI(h)): -6%
- inhibition at 3 µM (ROCK-II(h)): 8%
- inhibition at 3 µM (Ros(h)): 13%
- inhibition at 3 µM (TAK1(h)): 2%
- inhibition at 3 µM (TAO2(h)): 8%
- inhibition at 3 µM (TrkA(h)): 0%
- inhibition at 3 µM (TrkB(h)): 0%
- inhibition at 3 µM (ZAP-70(h)): 0%
